Values joined by “and” are separate entries in the source; they are usually repeats but may differ in a detail not shown here. Identical values can stand only once.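 How tested: cells in 96-well plates exposed to compound for 48 hours at five concentrations. GI50 = concentration required for 50% inhibition of growth. TGI: total growth inhibition.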
What was measured:
Test in all cases: growth of human tumour cells (NCI), 48 h
HT29 colon = system: HT29 colon
MOLT-4 leukemia = system: MOLT-4 leukemia
OVCAR-3 ovarian = system: OVCAR-3 ovarian
RPMI-8226 leukemia = system: RPMI-8226 leukemia
SF-268 CNS = system: SF-268 CNS
SF-295 CNS = system: SF-295 CNS
SK-MEL-2 melanoma = system: SK-MEL-2 melanoma
SK-MEL-5 melanoma = system: SK-MEL-5 melanoma
SR leukemia = system: SR leukemia
PC-3 prostate = system: PC-3 prostate

| SMILES | TGI (HT29 colon) | TGI (MOLT-4 leukemia) | TGI (OVCAR-3 ovarian) | TGI (RPMI-8226 leukemia) | TGI (SF-268 CNS) | TGI (SF-295 CNS) | TGI (SK-MEL-2 melanoma) | TGI (SK-MEL-5 melanoma) | TGI (SR leukemia) | GI50 (HT29 colon) | GI50 (MOLT-4 leukemia) | GI50 (OVCAR-3 ovarian) | GI50 (PC-3 prostate) | TGI (PC-3 prostate) | GI50 (RPMI-8226 leukemia) | GI50 (SF-268 CNS) | GI50 (SF-295 CNS) | GI50 (SK-MEL-2 melanoma) | GI50 (SK-MEL-5 melanoma) | GI50 (SR leukemia) |
| --- | --- | --- | --- | --- | --- | --- | --- | --- | --- | --- | --- | --- | --- | --- | --- | --- | --- | --- | --- | --- |
| CC(C)N1C(C)[C@@H](c2ccccc2)O[P@@]1(=O)CC1=CCCCC1 (stereo partly drawn) | > 100 µM | > 100 µM | > 100 µM | > 100 µM | > 100 µM | > 100 µM | > 100 µM | > 100 µM | > 100 µM | – | – | – | – | – | – | – | – | – | – | – |
| COC(=O)C(=O)C(C(C)=O)C(=O)NCc1ccccc1 (stereo not drawn) | > 100 µM | > 100 µM | > 100 µM | > 100 µM | > 100 µM | > 100 µM | > 100 µM | > 100 µM | > 100 µM | – | – | – | – | – | – | – | – | – | – | – |
| COc1cc([C@@H]2OC(=O)C3C2C(=O)O[C@H]3c2ccc(O)c(OC)c2)ccc1O (stereo partly drawn) | > 100 µM | > 100 µM | > 100 µM | > 100 µM | > 100 µM | > 100 µM | – | > 100 µM | > 100 µM | – | – | – | – | – | – | – | – | – | – | – |
| COc1cc2c3c(n(CCN4CCOCC4)c(=O)c2cc1OC)-c1ccccc1C3=O | > 100 µM | > 100 µM | > 100 µM | > 100 µM | > 100 µM | > 100 µM | > 100 µM | > 100 µM | – | > 100 µM | 55.5 µM | > 100 µM | > 100 µM | > 100 µM | 81 µM | > 100 µM | 34.6 µM | > 100 µM | > 100 µM | – |
| COc1ccc2c(CCCc3ccc(Cl)cc3Cl)c3[n+](cc2c1OC)CCc1cc2c(cc1-3)OCO2 | – | – | – | – | – | – | – | 0.561 µM | – | – | – | – | 0.279 µM | 1.24 µM | – | – | – | – | 0.212 µM | – |
| CC(=O)c1ccc2c3c1[C@H]1O[C@H]1c1cccc(c1-3)[C@@H]1O[C@H]21 | 7.81 µM | > 32.6 µM | 12.1 µM | 8.35 µM | 3.86 µM | 18 µM | > 100 µM | 5.39 µM | > 100 µM | – | – | – | – | – | – | – | – | 3.79 µM | – | – |
| CC(=O)[CH-]C(=O)c1ccccc1.CC(=O)[CH-]C(=O)c1ccccc1.CC[C@H](/C=C/C(C)[C@H]1CCC2[C@@H]3CC=C4C[C@@H]([O-])CC[C@]4(C)C3CC[C@@]21C)C(C)C.CC[C@H](/C=C/C(C)[C@H]1CCC2[C@@H]3CC=C4C[C@@H]([O-])CC[C@]4(C)C3CC[C@@]21C)C(C)C.Cl.[Ti+4] (stereo partly drawn) | > 25 µM | > 25 µM | > 25 µM | > 25 µM | > 25 µM | > 25 µM | > 25 µM | > 25 µM | – | > 25 µM | > 25 µM | > 25 µM | – | – | > 25 µM | > 25 µM | > 25 µM | > 25 µM | > 25 µM | – |
| CN(C)CC1C(=O)O[C@H]2[C@H]1CC/C(COC(=O)NCc1ccc(Cn3c(=O)sn(CCCI)c3=O)cc1)=C\CC[C@@]1(C)O[C@@H]21 (stereo partly drawn) | 1.84 µM | 3.43 µM | 1.45 µM | 6.88 µM | 11.4 µM | 14.5 µM | 13.8 µM | 13.3 µM | – | 0.945 µM | 0.947 µM | 0.775 µM | 0.251 µM | 7.32 µM | 1.75 µM | 4.84 µM | 7.43 µM | 6.31 µM | 6.53 µM | – |
| CCOC(=O)C(=O)Nc1c(C)cccc1C(C)(C)C | > 100 µM | > 100 µM | > 100 µM | > 100 µM | > 100 µM | > 100 µM | > 100 µM | > 100 µM | – | – | – | – | – | – | – | – | – | – | – | – |
| COC(=O)c1ccc(NC(=O)c2ccc(NC3=C(Cl)C(=O)N(Cc4ccccc4)C3=O)cc2)cc1 | 51.2 µM | 25.6 µM | 26.9 µM | 16.3 µM | 59 µM | 22 µM | 42.2 µM | > 100 µM | – | 22.5 µM | 13 µM | 14 µM | 13.7 µM | 26.6 µM | 3.74 µM | 22.2 µM | 10.2 µM | 17.3 µM | 34.7 µM | – |
| COc1ccc(/C=C\c2cc(OC)c(OC)c(OC)c2)cc1OC(=O)CC(N)C(=O)O (stereo not drawn) | 39.6 µM | – | 0.00528 µM and 0.00484 µM and 0.0193 µM | – | 0.365 µM | 0.00305 µM and 0.00613 µM | 0.00812 µM | – | – | 4.65 µM | 0.00172 µM | 0.000506 µM | 0.00227 µM | – | – | 0.000945 µM | 0.000726 µM | 0.00151 µM and 0.00249 µM | 0.000453 µM and 0.00141 µM | – |
| NC(=O)C(=O)C1C(=O)N(c2ccccc2)N=C1N (stereo not drawn) | > 100 µM | > 100 µM | > 100 µM | > 100 µM | > 100 µM | > 100 µM | > 100 µM | – | > 100 µM | – | – | – | – | – | – | – | – | – | – | – |
| CN(CCCN1C(=O)c2cccc3cc([N+](=O)[O-])cc(c23)C1=O)CCN(C)CCCN1C(=O)c2cccc3cc([N+](=O)[O-])cc(c23)C1=O | > 39.3 µM | > 39.3 µM | > 39.3 µM | > 39.3 µM | > 39.3 µM | > 39.3 µM | > 39.3 µM | > 39.3 µM | – | – | – | – | – | – | – | – | – | – | – | – |
| CCCCCCCCC(C)CCCCCCCCC(=O)OCC(COP(=O)([O-])OCC[N+](C)(C)C)OC(=O)CCCCCCCCC(C)CCCCCCCC (stereo not drawn) | > 100 µM | > 100 µM | > 100 µM | > 100 µM | > 100 µM | > 100 µM | > 100 µM | > 100 µM | > 100 µM | – | – | – | – | – | – | – | – | – | – | – |
| Cc1cc(Cl)nc(N(CCCNc2ccnc3cc(Cl)ccc23)Cc2cccs2)n1 | 4.04 µM | 11.8 µM | 13.4 µM | 3.84 µM | 16.8 µM | – | 6.54 µM | 2.79 µM | – | 0.57 µM | 1.77 µM | 2.19 µM | 1.83 µM | 13.7 µM | 0.83 µM | 3.36 µM | – | 2.29 µM | 1.42 µM | – |
| Cc1ccc(C2[C@H]3C(=O)N(c4ccc(Cc5ccc(N6C(=O)[C@@H]7ON(c8ccccc8)C(c8ccc(C)cc8)[C@@H]7C6=O)cc5)cc4)C(=O)[C@H]3ON2c2ccccc2)cc1 (stereo partly drawn) | > 100 µM | > 100 µM | > 100 µM | > 100 µM | > 100 µM | > 100 µM | > 100 µM | > 100 µM | – | – | – | – | – | – | – | – | – | – | – | – |
| CC(=O)CCc1ccc(Oc2c3c(nc4ccccc24)OCC3)cc1 | > 100 µM | > 100 µM | > 100 µM | > 100 µM | > 100 µM | – | > 100 µM | 55.1 µM | > 100 µM | > 100 µM | 91.9 µM | 31.6 µM | 82.3 µM | > 100 µM | 67.7 µM | 27.5 µM | – | > 100 µM | 16.6 µM | 60.2 µM |

— PubChem BioAssay (NCI)
